Experimental data published in patent US11155580B2, “Modified proteins and methods of use thereof” (YALE UNIVERSITY, priority 2013, dated 2021).
Entries after “also recorded” stand apart in the source; their conditions may differ. Where no end group is shown, it is not given here. rhodamine = not defined here; Rhod = not defined here

Tests used:
[1] = tested on: HeLa cells transfected with pGR-mCherry and Rab5-GFP or Rab5Q79L-GFP; assay: GR-mCherry translocation in cells expressing Rab5-GFP or Rab5Q79L-GFP; type: cell-based; details: 1 μM, 30 min
Protocol: Cotransfected cells expressing Rab-GFP fusions and pGR-mCherry were identified via their characteristic pattern of green and red fluorescence. The translocation ratio was determined using median values of mCherry fluorescence within the nucleus and surrounding region using CellProfiler.
HeLa cells transfected for 24-36 hr with pGR-mCherry and either Rab5-GFP or Rab5Q79L-GFP were plated (10^4/well in […]) the day prior to experiments in 96 well glass bottom plates (Matrical). The cells were washed with HKR buffer and the nuclei labeled using Hoescht as above. […] The cells were incubated for a further 30 min at 37° C. before imaging. Cells that had been cotransfected with EGFP fusions were identified via their characteristic pattern of green and red fluorescence. To evaluate the extent of GR activation, epifluorescence images were obtained as described above, except the fluorescence of pGR-mCherry was also visualized using Zeiss Filter Set #43 (ex BP 545/25 nm, FT 570, em BP 605/70 nm).
(§1) The image analysis algorithm used by CellProfiler is customizable and contained within a ‘Pipeline’ that describes a series of image manipulation and evaluation steps, such as reading the image, adjusting the intensity, and identifying objects. Each step has several options. […] Using the image of Hoescht fluorescence and Otsu's method of automatic thresholding, nuclei were identified and segmented using 3 class thresholding. The middle class was assigned to background. Closely approximated objects were separated using ‘Laplacian of Gaussian’ modeling, and touching nuclei were divided using the ‘shape’ option. Nuclear regions were expanded by 2 μm to generate an enlarged region. The nuclear region was subtracted from enlarged region to generate a ring surrounding the nucleus (surround). The diameter of the surrounding region was chosen to be 2 μm larger than the nucleus, within the range (1-3 μm) used by previously reported high content screens (Ding et al., 1998, J Biol Chem. 273:28897-28905; Peeraniet al., 2007, EMBO J. 26:4744-4755). The ratio of the median intensities of the nuclear and surrounding region of the GFP or mCherry (as appropriate) image were collected for every cell examined. Those cells falling below a threshold of intensity (10% of the maximum intensity of the image) were discarded as ‘untransfected’. Typically, 20-60 transfected cells from 15-30 images were examined for each experimental condition.

[2] = tested on: HeLa cells transfected with GR-GFP; assay: GR-GFP translocation assay (cytosolic access of Dex-labeled molecules); type: cell-based; details: for translocation ratio (TR): HeLa cells expressing GR-GFP
Protocol: HeLa cells transfected with pK7-GR-GFP were plated in Matrical plates as described above. To label nuclei, the media was replaced with HKR buffer containing 300 nM Hoescht and the cells incubated for 30 min at 37° C.
Cells were then analyzed as described above.
HeLa cells transfected with pK7-GR-GFP for 24-36 hr were plated (10^4/well in 200 μL) the day prior to experiments in 96 well glass bottom plates (Matrical). The media was replaced with HKR buffer containing 300 nM Hoescht and the cells incubated for 30 min at 37° C. […] The cells were incubated for a further 30 min at 37° C. before epifluorescence imaging using a Zeiss Axiovert 200M microscope fitted with a mRM digital camera, a 63×1.3NA PlanApo objective and an EXFO-Excite illumination source.
Uptake was allowed to proceed for an additional 30 min at 37° C. before analysis by epifluorescence images as described elsewhere herein.
as §1, with “The diameter of the surrounding region was chosen to be 2 μm larger than the nucleus, within the range (1-3 μm) used by previously reported high content screens (Ding et al., 1998, J Biol Chem. 273:28897-28905; Peeraniet al., 2007, EMBO J. 26:4744-4755).” left out

Figure 15 = assay: Figure 15
Description: Table printed on a drawing sheet, Figure 15
The amino acid sequence of Arg8 is provided in SEQ ID NO:68.
First reader's note: Cytosolic concentration and percent in cytosol are taken as measures of cell permeability or uptake; the supplied text has no description of Figure 15.

U2OS(GIGI) cells = assay: GIGI in lysates, stably transfected U2OS(GIGI) cells; type: cell-based; details: Dex-labeled peptides, 24 h, lysates, read-out: EC50 (eGFP expression, GIGI)
Description: RFUs are expressed±standard deviation (Excel). The maximum induction level is defined as RFUmax. Data were processed using Kaleidagraph and GraphPad Prism software. RFU=([I530]/[I580])−([I′530]/[I′580]) (1)
Y=Ymin+(Ymax−Ymin)/(1+10^logEC50-X) (2)

HeLa cells [3] = assay: Colocalization with Alexa-488-transferrin (Tf488), live cell confocal microscopy; type: cell-based; details: 1 μM, 30 min
Protocol: To examine the colocalization of rhodamine labeled miniature proteins or peptides with Alexa-488-transferrin (Tf488), HeLa cells were plated (200 μl, 10^4 cells/well, 96 well glass bottom plates, Matrical) the day prior to experiments. The media was replaced with 150 μL Hepes-Krebs-Ringer's (HKR) buffer (140 mM NaCl, 2 mM KCl, 1 mM CaCl2, 1 mM MgCl2, 10 mM Hepes pH 7.4) containing 1 μM miniature protein or 25 nM Alexa-488-transferrin (Molecular Probes) and the cells incubated at 37° C. for 30 min. The cells were then rinsed twice with 200 μL, HKR buffer and nuclei were labeled by overlaying 200 μL HKR containing 300 nM Hoechst 33342 (Molecular Probes Cat. # H3570) for 5 minutes. Images of cells were acquired using a PerkinElmer LiveView spinning disk confocal microscope fitted with a 60×1.2 NA objective. Colocalization with Rab-GFP fusions was examined in an analogous way using HeLa cells transfected with the appropriate expression plasmid.
Colocalization between rhodamine and fluorescein labeled miniature proteins and peptides, or between rhodamine labeled miniature proteins and markers of endocytosis was completed using confocal microscopy. Live cell confocal microscopy was conducted using a PerkinElmer LiveView spinning disk confocal microscope fitted with heated microscope enclosure (maintained at 37° C.), a 60×1.2 NA objective, laser illumination, a Nipkow CSU-1× spinning disk, and a Hammamatsu CS9100 EMCCD camera operated using Velocity software. Alexafluor-488-transferrin was detected using a 488 nm laser and a 520 nm long pass filter; tetraethylrhodamine and Alexafluor-546-transferrin were detected using a 546 nm laser line and a 580 nm long pass filter, Hoescht 33342 was detected using a 405 nm laser line and a 450 nm long pass filter. Images were processed for presentation by using the ‘subtract background’ option and linear contrast adjustments in Image J. All adjustments were applied uniformly to the entire image. Colocalization analysis was performed using the JACOP plugin (Bolte and Cordelières, 2006), available on the ImageJ website. The fraction of rhodamine signal overlapping with EGFP signal (R E G) was calculated using Mander's coefficient and automatic thresholding. Pearson's correlation coefficient (R) was also obtained using the JACOP plugin.

cathepsin B = cathepsin B (Homo sapiens, UniProt P07858); assay: Resistance to acid proteases: cathepsin B; type: in vitro ADME; details: 50 pmol, 30 min, 37° C., pH 5
Protocol: 50 pmol aPPR, 5.2R, 5.3R, ZF5.3R, TatR (SEQ ID NO:67), or Arg8R (SEQ ID NO:68) were incubated with 5 pg cathepsin B, D, or L for 30 min at 37° C. in 10 μL of 20 mM sodium phosphate buffer (pH 5) containing 150 mM NaCl. At the end of the incubation, the reaction was stopped by adding 40 μL of a solution containing a 84:15:1 ratio of water:EtOH:TFA before analysis by HPLC.

HeLa cells [4] = assay: HPLC analysis of cytosolic extracts prepared with streptolysin O; type: cell-based; details: HeLa cells treated with rhodamine labeled molecule
Protocol: To generate cytosolic extracts, HeLa cells were treated with streptolysin O (SLO), a well characterized bacterial toxin that creates pores in the plasma membranes of target cells (Walev et al., 2002, FASEB 16:237-239). […] Moreover, when the toxin is added to cultured cells at 4° C. and washed with PBS before raising the temperature to 37° C., pores are created only in the plasma membrane and the release of ER, golgi, or endolysosomal contents are avoided (Androlewicz et al., 1993, Proc Natl Acad Sci USA 90:9130-9134).
First, selective release of the cytoplasmic contents of HeLa cells using the published procedures was verified. HeLa cells were treated with 20 μg/mL SLO in PBS containing 5 mM DTT (20 min, 4° C.), washed (three PBS washes, 150 μL each), resuspended in PBS, and incubated at 37° C. for 15 min, after which 1.5 μM propidium iodide (PI), a marker of permeabilized cell membranes, was added.

HeLa cells [5] = assay: Effects of endocytosis inhibitors on cell uptake, confocal microscopy; type: cell-based; details: 1 μM rhodamine labeled, 30 min, 37° C.
Protocol: HeLa cells grown for 24 h in glass bottom plates were incubated with HKR buffer, or HKR buffer containing 80 μM dynasore, 50 μM N-ethyl-isopropyl-amiloride, or 5 mM methyl-β-cyclodextrin for 30 min at 37° C. prior to the addition of 1 μM rhodamine-labeled miniature protein or peptide (Tat (SEQ ID NO:67) and Arg8 (SEQ ID NO:68)). The cells were washed twice with DMEM, the nuclei labeled with Hoescht, and images acquired as described above for colocalization experiments.

## C[C@@H]1C[C@H]2[C@@H]3CCC4=CC(=O)C=C[C@]4(C)[C@@]3(F)[C@@H](O)C[C@]2(C)[C@@]1(O)C(=O)CO [Dex, dexamethasone]
[1]; Rab5Q79L-GFP
  TR (GR-mCherry), Rab5Q79L-GFP expressing cells: 2.45±0.21
[1]; wild-type Rab5-GFP
  TR (GR-mCherry), Rab5-GFP expressing cells: 2.24±0.15
[2]; 5 mM MβCD, 1 μM
  reduction of the increase in TR by MβCD: 53%

## GRKKRRQRRRPPQY [Tat]
Figure 15
  % in cytosol: 0.93%
  [molecule] in cytosol: 4.63 nM

## K^DexGPSQPTYPGDDAPVEDLIRFYNDLQQYLNVVTRHRY-NH2 (K(dexamethasone)GPSQPTYPGDDAPVEDLIRFYNDLQQYLNVVTRHRY-NH2) [aPPDex]
[1]
  TR (GR-mCherry), cells expressing Rab5Q79L-GFP or Rab5-GFP: 1.25±0.04
U2OS(GIGI) cells
  EC50: 438 nM
[2]; 200 nM bafilomycin pretreatment 1 h, then 1 μM
  effect of bafilomycin on TR: did not alter the effect
[2]; 1 μM, 30 min
  translocation ratio (TR): 1.41±0.09
[2]; 50 μM EIPA pretreatment 30 min, then 1 μM, 30 min
  effect of EIPA on TR: None of the endocytosis inhibitors altered the TR
[2]; 80 μM dynasore pretreatment 30 min, then 1 μM, 30 min
  effect of dynasore on TR: None of the endocytosis inhibitors altered the TR
[2]; 5 mM MβCD pretreatment 30 min, then 1 μM, 30 min
  effect of methyl-β-cyclodextrin (MβCD) on TR: None of the endocytosis inhibitors altered the TR

## K^DexWYSCNVCGKAFVLSAHLNQHLAVHTQAT-NH2 (K(dexamethasone)WYSCNVCGKAFVLSAHLNQHLAVHTQAT-NH2; cysteine pairing not given here) [ZFDex]
U2OS(GIGI) cells
  EC50: 103 nM
[2]; 1 μM, 30 min
  translocation ratio (TR): 1.4±0.05

## K^RhodGPSQPTYPGDDAPVEDLIRFYRDLRRYLNVVTRHRY-NH2 (K(rhodamine)GPSQPTYPGDDAPVEDLIRFYRDLRRYLNVVTRHRY-NH2; reading uncertain; also: printed as K^RhodGPSQPTYPGDDAPVEDLIRFYRDLRRYLNVVTRHRY-NH2) [4.3R]
HeLa cells [3]
  intracellular red fluorescent signal: red fluorescent puncta throughout the cytosol

## K^RhodGPSQPTYPGDDAPVRDLIRFYRDLQRYLNVVTRHRY-NH2 (K(rhodamine)GPSQPTYPGDDAPVRDLIRFYRDLQRYLNVVTRHRY-NH2; reading uncertain; also: printed as K^RhodGPSQPTYPGDDAPVRDLIRFYRDLQRYLNVVTRHRY-NH2) [4.2R]
HeLa cells [3]
  intracellular red fluorescent signal: red fluorescent puncta throughout the cytosol

## K^RhodGPSQPTYPGDDAPVRDLIRFYRDLQRYLRVVTRHRY-NH2 (K(Rhod)GPSQPTYPGDDAPVRDLIRFYRDLQRYLRVVTRHRY-NH2; reading uncertain; also: printed as KRhodGPSQPTYPGDDAPVRDLIRFYRDLQRYLRVVTRHRY-NH2) [5.2R]
Cathepsin B
  degradation by cathepsin B (HPLC): several additional small peaks
HeLa cells [3]
  intracellular red fluorescent signal: red fluorescent puncta throughout the cytosol

## K^RhodRRRRRRRR-NH2 (K(Rhod)RRRRRRRR-NH2; reading uncertain; also: printed as K^RhodRRRRRRRR-NH2) [Arg8R]
HeLa cells [4]
  material found in SLO cytoplasmic extracts (HPLC): retention times distinct from the starting material; also recorded: little or no material with the same retention time as the starting material
Cathepsin B
  degradation by cathepsin B (HPLC): little or no degradation
HeLa cells [5]; 50 μM EIPA
  effect of EIPA on uptake: dramatically reduced the uptake
HeLa cells [5]; 80 μM dynasore
  effect of dynasore on uptake: completely blocked the uptake
HeLa cells [5]; 5 mM MβCD
  effect of MβCD on uptake: increased
HeLa cells [3]
  intracellular red fluorescent signal: red fluorescent puncta throughout the cytosol

## RRRRRRRR [Arg8]
Figure 15
  % in cytosol: 2.8%
  [molecule] in cytosol: 14.0 nM

## WYSCNVCGKAFVLSRHLNRHLRVHRRAT [ZF5.3]
Figure 15
  % in cytosol: 59%
  [molecule] in cytosol: 249 nM
